Reference: PMC10104807, “Modulation of tau tubulin kinases (TTBK1 and TTBK2) impacts ciliogenesis” (Scientific Reports, 2023)

Legend:
Assay in all cases: DiscoverX scanMAX binding assay
Conditions in all cases: 1 μM
CDC2L1 = biological target: T1, CDC2L1 (Homo sapiens, UniProt P21127)
T1 construct: purchased Eurofins (radiometric) / Eurofins DiscoverX scanMAX / Reaction Biology / SignalChem
Outline: (§1)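 Values are percent of control (PoC) from a kinase binding assay, obtained with test compound at 1 µM against a panel of 403 wild-type human kinases.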

HIPK1 = biological target: T2, HIPK1 (Homo sapiens, UniProt Q86Z02)
T2 construct: purchased Eurofins (radiometric) / Eurofins DiscoverX scanMAX / Reaction Biology / SignalChem
T2 sequence (Q86Z02 whole entry): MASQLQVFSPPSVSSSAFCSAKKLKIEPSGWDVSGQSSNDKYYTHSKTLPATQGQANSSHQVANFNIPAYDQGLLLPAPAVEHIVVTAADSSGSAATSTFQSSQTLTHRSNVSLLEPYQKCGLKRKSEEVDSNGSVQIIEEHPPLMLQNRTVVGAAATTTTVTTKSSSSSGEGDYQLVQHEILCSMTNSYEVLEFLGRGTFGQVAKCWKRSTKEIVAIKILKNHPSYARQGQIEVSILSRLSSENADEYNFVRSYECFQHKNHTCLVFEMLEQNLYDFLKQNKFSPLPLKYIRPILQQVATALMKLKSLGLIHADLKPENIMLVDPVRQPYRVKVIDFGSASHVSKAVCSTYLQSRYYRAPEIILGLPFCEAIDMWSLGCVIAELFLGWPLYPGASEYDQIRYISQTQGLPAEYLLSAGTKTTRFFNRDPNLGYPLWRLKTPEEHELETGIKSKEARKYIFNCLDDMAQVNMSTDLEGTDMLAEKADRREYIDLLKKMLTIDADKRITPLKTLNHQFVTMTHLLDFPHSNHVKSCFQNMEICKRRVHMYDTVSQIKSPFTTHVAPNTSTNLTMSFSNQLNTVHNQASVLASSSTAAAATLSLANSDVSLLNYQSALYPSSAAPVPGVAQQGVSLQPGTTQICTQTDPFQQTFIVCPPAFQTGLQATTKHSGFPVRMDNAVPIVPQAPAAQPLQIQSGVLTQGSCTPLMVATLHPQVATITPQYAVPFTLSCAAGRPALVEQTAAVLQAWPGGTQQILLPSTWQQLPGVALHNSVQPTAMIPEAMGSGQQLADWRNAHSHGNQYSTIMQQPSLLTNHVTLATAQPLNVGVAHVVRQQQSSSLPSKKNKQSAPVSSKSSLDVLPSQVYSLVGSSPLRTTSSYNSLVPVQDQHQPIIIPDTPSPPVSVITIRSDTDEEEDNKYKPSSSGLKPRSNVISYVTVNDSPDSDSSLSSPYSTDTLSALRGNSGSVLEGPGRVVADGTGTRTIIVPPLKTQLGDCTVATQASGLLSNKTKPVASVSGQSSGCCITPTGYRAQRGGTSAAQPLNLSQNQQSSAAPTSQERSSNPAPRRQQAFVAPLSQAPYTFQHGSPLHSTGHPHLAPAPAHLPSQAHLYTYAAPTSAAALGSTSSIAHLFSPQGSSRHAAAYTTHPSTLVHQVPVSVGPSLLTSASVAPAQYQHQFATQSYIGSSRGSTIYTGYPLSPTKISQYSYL
Outline: as §1

SNARK = biological target: T3, SNARK (Homo sapiens, UniProt Q9H093)
T3 construct: purchased Eurofins (radiometric) / Eurofins DiscoverX scanMAX / Reaction Biology / SignalChem
T3 sequence (Q9H093 whole entry): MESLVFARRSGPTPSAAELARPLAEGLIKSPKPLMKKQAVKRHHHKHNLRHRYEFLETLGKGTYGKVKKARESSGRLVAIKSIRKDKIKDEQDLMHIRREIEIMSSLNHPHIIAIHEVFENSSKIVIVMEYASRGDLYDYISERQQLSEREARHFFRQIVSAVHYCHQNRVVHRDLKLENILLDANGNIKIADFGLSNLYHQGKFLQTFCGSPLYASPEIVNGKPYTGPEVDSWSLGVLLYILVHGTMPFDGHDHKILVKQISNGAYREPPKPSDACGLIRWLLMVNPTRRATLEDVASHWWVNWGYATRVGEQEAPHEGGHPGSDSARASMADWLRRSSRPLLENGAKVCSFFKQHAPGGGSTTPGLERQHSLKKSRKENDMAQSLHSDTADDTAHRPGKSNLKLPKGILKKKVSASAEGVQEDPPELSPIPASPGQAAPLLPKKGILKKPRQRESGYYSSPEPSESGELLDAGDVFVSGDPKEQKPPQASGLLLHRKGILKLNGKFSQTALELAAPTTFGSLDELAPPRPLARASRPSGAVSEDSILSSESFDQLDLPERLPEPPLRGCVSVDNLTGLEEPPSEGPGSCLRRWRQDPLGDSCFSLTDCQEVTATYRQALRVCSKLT
Outline: as §1

[1] = biological target: T4, TYK2(JH1domain-catalytic) (Homo sapiens, UniProt P29597)
T4 construct: TYK2(JH1domain-catalytic); purchased Eurofins (radiometric) / Eurofins DiscoverX scanMAX / Reaction Biology / SignalChem
T4 sequence (P29597 897-1176 limits assumed): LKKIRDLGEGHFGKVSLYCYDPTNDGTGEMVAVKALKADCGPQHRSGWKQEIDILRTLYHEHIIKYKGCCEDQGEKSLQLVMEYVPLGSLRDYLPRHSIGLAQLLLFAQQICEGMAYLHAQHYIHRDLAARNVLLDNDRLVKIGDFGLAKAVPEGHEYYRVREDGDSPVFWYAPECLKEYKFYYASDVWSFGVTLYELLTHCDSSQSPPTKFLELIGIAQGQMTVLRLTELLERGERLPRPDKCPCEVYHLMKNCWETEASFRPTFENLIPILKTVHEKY
Outline: as §1

CDK11 = biological target: T5, CDK11 (Homo sapiens, UniProt Q9BWU1)
T5 construct: purchased Eurofins (radiometric) / Eurofins DiscoverX scanMAX / Reaction Biology / SignalChem
T5 sequence (Q9BWU1 whole entry): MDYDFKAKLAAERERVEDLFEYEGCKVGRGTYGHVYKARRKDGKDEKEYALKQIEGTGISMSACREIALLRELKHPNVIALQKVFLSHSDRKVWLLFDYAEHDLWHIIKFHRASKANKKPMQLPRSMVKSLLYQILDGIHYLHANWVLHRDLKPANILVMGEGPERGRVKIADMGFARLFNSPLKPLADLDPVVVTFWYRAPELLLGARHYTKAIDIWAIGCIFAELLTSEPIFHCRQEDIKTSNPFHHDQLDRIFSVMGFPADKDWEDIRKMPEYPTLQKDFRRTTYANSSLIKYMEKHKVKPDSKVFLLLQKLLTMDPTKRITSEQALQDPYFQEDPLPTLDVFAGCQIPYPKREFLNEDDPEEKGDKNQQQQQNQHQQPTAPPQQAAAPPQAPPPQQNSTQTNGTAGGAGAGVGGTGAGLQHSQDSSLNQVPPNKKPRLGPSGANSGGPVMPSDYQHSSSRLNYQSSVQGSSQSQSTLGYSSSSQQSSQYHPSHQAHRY
Outline: as §1

CDK8 = biological target: T6, CDK8 (Homo sapiens, UniProt P49336)
T6 construct: purchased Eurofins (radiometric) / Eurofins DiscoverX scanMAX / Reaction Biology / SignalChem
T6 sequence (P49336 whole entry): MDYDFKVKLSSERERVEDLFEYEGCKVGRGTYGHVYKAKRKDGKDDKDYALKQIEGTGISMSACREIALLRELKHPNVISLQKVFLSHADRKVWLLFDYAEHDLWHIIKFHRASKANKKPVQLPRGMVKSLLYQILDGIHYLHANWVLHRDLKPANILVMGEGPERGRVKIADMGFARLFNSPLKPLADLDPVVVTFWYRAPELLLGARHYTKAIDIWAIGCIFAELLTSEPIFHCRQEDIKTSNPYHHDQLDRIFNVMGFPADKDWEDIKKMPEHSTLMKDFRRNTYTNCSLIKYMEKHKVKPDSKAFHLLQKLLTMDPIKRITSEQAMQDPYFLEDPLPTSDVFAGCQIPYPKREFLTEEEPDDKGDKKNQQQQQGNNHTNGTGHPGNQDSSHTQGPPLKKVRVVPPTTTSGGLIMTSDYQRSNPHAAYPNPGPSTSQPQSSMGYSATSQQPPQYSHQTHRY
Outline: as §1

HASPIN = biological target: T7, HASPIN (Homo sapiens, UniProt Q8TF76)
T7 construct: purchased Eurofins (radiometric) / Eurofins DiscoverX scanMAX / Reaction Biology / SignalChem
T7 sequence (Q8TF76 whole entry): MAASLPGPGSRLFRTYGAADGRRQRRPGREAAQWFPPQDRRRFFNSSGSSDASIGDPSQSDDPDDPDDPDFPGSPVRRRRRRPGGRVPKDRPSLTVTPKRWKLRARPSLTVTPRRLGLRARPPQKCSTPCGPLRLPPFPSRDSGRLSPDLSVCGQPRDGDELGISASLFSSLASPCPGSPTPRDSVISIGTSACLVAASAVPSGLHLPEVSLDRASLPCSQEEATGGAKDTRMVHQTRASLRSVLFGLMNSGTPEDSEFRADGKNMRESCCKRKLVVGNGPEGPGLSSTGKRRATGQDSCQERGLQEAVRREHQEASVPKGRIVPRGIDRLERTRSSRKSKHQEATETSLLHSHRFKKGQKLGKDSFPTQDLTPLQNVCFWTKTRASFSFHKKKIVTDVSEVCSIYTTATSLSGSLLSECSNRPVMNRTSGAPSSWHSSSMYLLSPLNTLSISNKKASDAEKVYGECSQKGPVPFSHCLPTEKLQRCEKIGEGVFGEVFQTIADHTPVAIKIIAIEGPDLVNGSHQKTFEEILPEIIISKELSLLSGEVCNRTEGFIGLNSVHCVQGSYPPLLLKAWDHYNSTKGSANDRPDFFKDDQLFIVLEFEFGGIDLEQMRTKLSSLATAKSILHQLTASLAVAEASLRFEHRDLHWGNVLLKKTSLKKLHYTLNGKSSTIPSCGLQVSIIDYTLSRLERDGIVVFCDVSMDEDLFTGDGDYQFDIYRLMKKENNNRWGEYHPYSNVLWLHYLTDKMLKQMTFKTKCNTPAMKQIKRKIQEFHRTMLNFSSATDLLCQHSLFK
Outline: as §1

T1 sequence (P21127 whole entry): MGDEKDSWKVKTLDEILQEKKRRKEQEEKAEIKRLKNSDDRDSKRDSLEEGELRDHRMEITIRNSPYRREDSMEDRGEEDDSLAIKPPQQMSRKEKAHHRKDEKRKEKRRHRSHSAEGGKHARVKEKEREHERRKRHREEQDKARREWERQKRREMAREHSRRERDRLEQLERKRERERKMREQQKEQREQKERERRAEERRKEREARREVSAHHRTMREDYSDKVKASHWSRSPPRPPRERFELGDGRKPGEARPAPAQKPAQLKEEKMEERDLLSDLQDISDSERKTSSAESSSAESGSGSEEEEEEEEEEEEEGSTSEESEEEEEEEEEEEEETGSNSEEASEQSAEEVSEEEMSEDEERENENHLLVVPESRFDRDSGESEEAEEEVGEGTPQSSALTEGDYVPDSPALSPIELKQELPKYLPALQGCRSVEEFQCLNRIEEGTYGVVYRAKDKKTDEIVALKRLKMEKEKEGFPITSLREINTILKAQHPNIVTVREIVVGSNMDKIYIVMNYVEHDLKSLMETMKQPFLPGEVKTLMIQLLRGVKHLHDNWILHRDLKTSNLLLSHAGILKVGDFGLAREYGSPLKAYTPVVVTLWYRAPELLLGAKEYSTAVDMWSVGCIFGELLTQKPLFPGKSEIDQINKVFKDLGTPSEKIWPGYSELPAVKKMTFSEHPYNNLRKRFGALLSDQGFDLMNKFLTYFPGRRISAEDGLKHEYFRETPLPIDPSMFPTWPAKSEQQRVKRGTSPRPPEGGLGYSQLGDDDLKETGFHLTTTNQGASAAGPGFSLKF

Row | Compound | CDC2L1 % control at 1000nM (CDC2L1) [% control] | HIPK1 % control at 1000nM (HIPK1) [% control] | SNARK % control at 1000nM (SNARK) [% control] | TYK2(JH1domain-catalytic) % control at 1000nM [1] [% control] | CDK11 % control at 1000nM (CDK11) [% control] | CDK8 % control at 1000nM (CDK8) [% control] | HASPIN % control at 1000nM (HASPIN) [% control]
1 | CC(C)(O)C#Cc1ccc2[nH]cc(-c3ccnc(N)n3)c2c1 [Compound 3] | 4.3 | 9.4 | 1.7 | 6.3 | – | – | –
2 | CC(C)(O)C#Cc1ccc2[nH]c3c(c2c1)-c1nc(N)ncc1CC3 [Compound 1] | – | – | – | – | 4.7 | 4.8 | 0.3
